Patent US11053204B2, “Pyrimidinyloxy benzene derivatives as herbicides” (FMC Corporation, priority 2015, dated 2021)

Tests used:
[1] = test system: barnyardgrass (Echinochloa crus-galli); assay: Test A preemergence, visual injury rating; type: in vivo; conditions: 0 to 100 scale (0 no effect, 100 complete control)
In short: (§1)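 Visual 0–100 rating (100 = complete control) taken about 10 d post-treatment relative to untreated checks. Preemergence: directed soil spray on sown loam/sand pots. Postemergence: seedlings 2–10 cm, 1–2 leaf. Non-phytotoxic solvent formulation with surfactant.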

kochia (Kochia scoparia) = assay: Test A preemergence, visual injury rating; type: in vivo; conditions: 0 to 100 scale (0 no effect, 100 complete control)
In short: as §1

Row | SMILES | Barnyardgrass plant response rating ([1]; 125 g ai/ha) | Barnyardgrass plant response rating ([1]; 500 g ai/ha) | Kochia plant response rating (kochia (Kochia scoparia); 125 g ai/ha) | Kochia plant response rating (kochia (Kochia scoparia); 500 g ai/ha)
1 | N#Cc1cccc(Oc2ncc(Cl)cn2)c1C(=O)OCCC(F)(F)F [Compound 30] | 0 | 0 | 90 | 100
2 | C=C(Br)COC(=O)c1c(Br)cccc1Oc1ncc(Cl)cn1 [Compound 61] | 50 | 100 | 90 | 100
